# Test results taken from patent US9168301B2 (NATIONAL TSING HUA UNIVERSITY, priority 2011, dated 2015).
# Like-named read-outs stand apart in the source and are kept apart here.
# Columns and labels:
# [1] = Experimental: The serum biochemical parameters of the rats were monitored by drawing blood samples from the rats' tail veins once before the tumor implantation, and weekly after the tumor implantation. When a rat was sacrificed, a blood sample was also drawn from its heart. Whole blood was collected from a rat and held in a serum separation tube (Vacationer, Franklin Lakes, N.J., USA), then centrifuged for 15 minutes at 3000 rpm, followed by preserving the serum upper clean solution by freezing. Afterwards, the College of Veterinary Medicine of National Chung Hsing University was commissioned with the task of analyzing the serum biochemical parameters of this solution, in which a serum biochemical analyzer (Chiron Diagnostics Corporation, Oberlin, Ohio, USA) was utilized to analyze concentrations of the serum enzymes related to liver and kidney functions.
# [2] = system: N1-S1 rat hepatoma liver tumor
# Experimental: The implantation of tumor cells: before anesthesia, the SD rats were subcutaneously injected with 0.1 mg/kg bw of Atropine, so as to inhibit the secretion of respiratory tract and salivary gland caused by anesthetics, and prevent bradycardia resulted from the overactivity of vagus nerve. After administering Atropine for 10-15 minutes, the rats were intraperitoneally injected with 20-40 mg/kg bw of Zoletil 50 and 10 mg/kg bw of Xylazine to anesthetize and sedate the animals. After the anesthetia, the subxiphoid incision was done to allow for tumor implantation. A surgical area on the rat was shaved and disinfected with 75% alcohol and iodine, and then a 3-cm incision was made along the midline of thin layer; the muscle layer was elevated to make an opening smaller than the skin layer, and both sides of the rat's abdomen was gently pressed to reveal the liver. A 29 G syringe was loaded with the N1-S1 tumor cell suspension in advance, and then used to slowly inject the suspension into a hepatic lobe of the rat; each of the rats were injected with 6×10^6 cell/0.1 mL of the suspension. After the implantation, the peritoneum was stitched back with an absorbable suture, before using a nylon suture to stitch back the skin layer. The operated rats were then released back into the cage, and their activities and survival were continuously monitored.
# A commercial ultrasound scanner (TOSHIBA Xario) was used to scan the liver tumors, and a linear probe (PLT-1204BT) was used because it imparts better resolution; the frequency of the scanning was set at 14 MHz. After the anesthesia, the experimental animals were subjected to B-mode ultrasound imaging, so as to confirm whether the induction and growth of the tumors. […] Sagittal sections and transverse sections were obtained for the experimental animals before the BNCT treatment, and on the 10th, 30th, 60th, and 80th day after the BNCT treatment, in order to estimate the size of the tumors, and also combined Doppler mode with 3D imaging to evaluate the distribution of vasculature in the tumors, as well as the relative position of the tumors in the abdominal cavities.
# The experimental animals were divided into three groups; a normal group (which was made up of normal rats), a tumor comparison group (in which the rats received the implantation of tumor cells but not the BNCT treatment), and a BNCT treatment group; the BNCT treatment group was divided into subgroups of rats that received different physical doses of irradiation.
# The rats implanted with the N1-S1 tumor cells were subjected to the BNCT treatment on the 17th day after the implantation. […] At 15 minutes before the irradiation, the rats were injected with Atropine and Zoletil to allow for longer anesthesia. Each of the rats were placed on a fixing frame with its tumor-bearing area close to the beam aperture of the Tsing Hua Open-pool Reactor (THOR), and then different duration of neutron irradiation was performed under a specific neutron flux, in order to acquire a specific irradiation dose. After the irradiation, an on-line neutron monitoring system for the THOR was used to confirm the actual irradiation dose.
# The tumor was scanned by using a commercial ultrasound scanner (TOSHIBA Xario), and the scanning frequency was set at 14 MHz. […] Ultrasound imaging was used to track growths or disappearances of the tumors, as well as changes in the blood vessels surrounding the tumors within 80 days of the BNCT treatment. The 2D mode of ultrasound imaging was employed to confirm the status of a tumor, and sagittal and transverse sections were obtained to estimate the size of the tumor, and the Doppler mode was combined with 3D imaging to evaluate the distribution of vasculature in the tumor, as well as in surroundings thereof.
# [3] = liver tumor-bearing SD rats, 25 mg B/kg bw one-shot i.v., n = 12
# [4] = injection dose 60 mg of 10B stable isotope per kilogram of human body weight; cited from earlier work
# [5] = 4 hours after the injection
# Experimental: Before measuring boron concentration of a sample, it needs to undergo microwave digestion first. A sample was initially placed into a Teflon high-pressure digestion vessel, then added with 3 mL of concentrated nitric acid (14N, 65%) and 0.5 mL of hydrogen peroxide (30-35%), and the vessel was sealed before placing the vessel into a microwave digestion system (MLS 1200 Milestone, Italia) for sample decomposition. […] The sample subsequently turned into a clear solution after complete digestion. After diluting the sample with deionized water, an Inductively Coupled Plasma Atomic Emission Spectrometer (ICP-AES, OPTIMA 2000 DV, PerkinElmer Instruments) was used to measure the boron concentration of the sample. For the conditions of the analysis, the temperature of argon plasma was set at 6000-7000 K; the analytical wavelength was set at 249.773 nm, and the liquid uptake rate was set at approximately 2 mL/min; the operating voltage after the formation of plasma was set at 40 V.
# [6] = system: GS-9L, U-343MGa, HeLa, V79, and B16 cells; conditions: cited from earlier work
# [7] = 4 days after the BNCT treatment
# [8] = G2, day −1 (before BNCT, baseline)
# [9] = G3, day −1 (before BNCT, baseline)
compound,measurement,setting,value
OB(O)O [boric acid],histopathological section of the testis,[1]; [7],did not show any abnormalities
same,change of GPT after the BNCT treatment,[1]; BNCT treatment group,returned to normal
same,change in BUN (kidney function),"[1]; BNCT treatment group, one month after the BNCT treatment",did not show any meaningful changes
same,clinical signs after BNCT,[1]; BNCT treatment groups,slight diarrhea and appetite loss
same,lowest body weight relative to the initial weight,"[1]; G1 (11.18 Gy), 8 days after the irradiation",78%
same,"GOT (AST), serum","[1]; G1 (11.18 Gy), day −1 (before BNCT, baseline), normal 83-118",250 ± 148 U/L
same,"BUN, serum","[1]; G1, day 11 after BNCT",15 ± 7 mg/dL
same,"GOT (AST), serum","[1]; G1, day 11 after BNCT",202 ± 127 U/L
same,"GPT (ALT), serum","[1]; G1, day 11 after BNCT",39 ± 13 U/L
same,"BUN, serum","[1]; G1, day 30 after BNCT",14 ± 1 mg/dL
same,"GOT (AST), serum","[1]; G1, day 30 after BNCT",111 ± 29 U/L
same,"GPT (ALT), serum","[1]; G1, day 30 after BNCT",50 ± 5 U/L
same,"BUN, serum","[1]; G1, day 80 after BNCT",17 ± 3 mg/dL
same,"GOT (AST), serum","[1]; G1, day 80 after BNCT",127 ± 8 U/L
same,"GPT (ALT), serum","[1]; G1, day 80 after BNCT",54 ± 4 U/L
same,"BUN, serum","[1]; G1, day −1 (before BNCT, baseline), normal 11-17",16 ± 2 mg/dL
same,"GPT (ALT), serum","[1]; G1, day −1 (before BNCT, baseline), normal 35-47",54 ± 7 U/L
same,lowest body weight relative to the initial weight,"[1]; G2 (7.97 Gy), 4 days after the irradiation",89%
same,"GOT (AST), serum","[1]; G2 (7.97 Gy), day −1 (before BNCT, baseline)",271 ± 39 U/L
same,"BUN, serum","[1]; G2, day 11 after BNCT",13 ± 2 mg/dL
same,"GOT (AST), serum","[1]; G2, day 11 after BNCT",204 ± 9 U/L
same,"GPT (ALT), serum","[1]; G2, day 11 after BNCT",45 ± 15 U/L
same,"BUN, serum","[1]; G2, day 30 after BNCT",17 ± 5 mg/dL
same,"GOT (AST), serum","[1]; G2, day 30 after BNCT",144 ± 20 U/L
same,"GPT (ALT), serum","[1]; G2, day 30 after BNCT",57 ± 3 U/L
same,"BUN, serum","[1]; G2, day 80 after BNCT",16 ± 2 mg/dL
same,"GOT (AST), serum","[1]; G2, day 80 after BNCT",116 ± 8 U/L
same,"GPT (ALT), serum","[1]; G2, day 80 after BNCT",62 ± 13 U/L
same,"BUN, serum",[1]; [8],12 ± 1 mg/dL
same,"GPT (ALT), serum",[1]; [8],56 ± 9 U/L
same,lowest body weight relative to the initial weight,"[1]; G3 (5.61 Gy), 3 days after the irradiation",92%
same,"GOT (AST), serum","[1]; G3 (5.61 Gy), day −1 (before BNCT, baseline)",168 ± 19 U/L
same,"BUN, serum","[1]; G3, day 11 after BNCT",15 ± 3 mg/dL
same,"GOT (AST), serum","[1]; G3, day 11 after BNCT",180 ± 8 U/L
same,"GPT (ALT), serum","[1]; G3, day 11 after BNCT",53 ± 4 U/L
same,"BUN, serum","[1]; G3, day 30 after BNCT",14 ± 3 mg/dL
same,"GOT (AST), serum","[1]; G3, day 30 after BNCT",153 ± 3 U/L
same,"GPT (ALT), serum","[1]; G3, day 30 after BNCT",55 ± 6 U/L
same,"BUN, serum","[1]; G3, day 80 after BNCT",18 ± 3 mg/dL
same,"GOT (AST), serum","[1]; G3, day 80 after BNCT",133 ± 41 U/L
same,"GPT (ALT), serum","[1]; G3, day 80 after BNCT",58 ± 12 U/L
same,"BUN, serum",[1]; [9],13 ± 1 mg/dL
same,"GPT (ALT), serum",[1]; [9],50 ± 10 U/L
same,change of liver enzyme GOT after the BNCT treatment,[1]; all three subgroups of the BNCT treatment group,decreased rapidly
same,"radiation damage in pancreases and spleens, tissue histopathological sections",[1]; liver tumor-bearing rats after BNCT with 10B-boric acid,did not show radiation damage
same,radiation effect in the testis,"[1]; one month after the BNCT irradiation, degree related to irradiation dose",atrophy of seminiferous tubules
same,testis effect,[1]; only rats that received 11.18 Gy (G1),clear testicular atrophy
same,reduction of tumor size,[2]; 30th day after BNCT treatment,approximately 90%
same,"histopathology of tumor cells, high magnification",[2]; [7],"shrunk in size, become hollow, broken down and dead"
same,tumor shrinkage ratio (ultrasound),"[2]; G1 (11.18 Gy), 30 days after BNCT",0.94 ± 0.01
same,tumor shrinkage ratio (ultrasound),"[2]; G1 (11.18 Gy), 60 days after BNCT",0.94 ± 0.02
same,tumor shrinkage ratio (ultrasound),"[2]; G1 (11.18 Gy), 80 days after BNCT",0.95 ± 0.02
same,tumor shrinkage ratio (ultrasound),"[2]; G1 (tumor physical dose 11.18 Gy), boric acid 25 mg 10B/kg i.v., 11 days after BNCT, 0 = initial size, 1 = vanished",0.64 ± 0.07
same,distribution of blood flow surrounding the tumor (Doppler imaging),"[2]; G1, G2 and G3, 8th, 12th, 18th day after BNCT",gradually decreased until it could no longer be detected
same,tumor shrinkage ratio (ultrasound),"[2]; G2 (7.97 Gy), 30 days after BNCT",0.89 ± 0.05
same,tumor shrinkage ratio (ultrasound),"[2]; G2 (7.97 Gy), 60 days after BNCT",0.86 ± 0.07
same,tumor shrinkage ratio (ultrasound),"[2]; G2 (7.97 Gy), 80 days after BNCT",0.91 ± 0.05
same,tumor shrinkage ratio (ultrasound),"[2]; G2 (tumor physical dose 7.97 Gy), 11 days after BNCT",0.62 ± 0.1
same,tumor shrinkage ratio (ultrasound),"[2]; G3 (5.61 Gy), 30 days after BNCT",0.77 ± 0.06
same,tumor shrinkage ratio (ultrasound),"[2]; G3 (5.61 Gy), 60 days after BNCT",0.83 ± 0.08
same,tumor shrinkage ratio (ultrasound),"[2]; G3 (5.61 Gy), 80 days after BNCT",0.87 ± 0.04
same,tumor shrinkage ratio (ultrasound),"[2]; G3 (tumor physical dose 5.61 Gy), 11 days after BNCT",0.48 ± 0.42
same,liver cancer in the rats after BNCT with 10B-boric acid,[2]; liver tumor-bearing rats,completely disappeared
same,"smallest tumor, size relative to the original size",[2]; one month after the BNCT treatment,6%
same,tumor size relative to the original tumor size,"[2]; three subgroups G1-G3, one month after the BNCT treatment",less than or equal to 22%
same,new growth or recurrence of the tumors (ultrasound tracking),[2]; up to 80 days after the BNCT treatment,did not reveal any new growth or recurrence of the tumors
same,"Cmax, highest drug concentration in blood",[3],104.6 ± 36.23 ppm
same,adverse effect of injected boric acid,[4],no permanent adverse effect
same,difference between the boron concentrations in the tumors and the normal liver cells,[5],insignificant
same,accumulation efficiency in the cells,[6]; previous studies,1
same,ratio of boron concentrations intracellularly and extracellularly,[6]; simple or passive diffusion,1
